The values that follow come from patent publication US20250059231A1, “Protease inhibitors” (priority 2021, published 2025).

Where a SMILES comes first, the peptide text is derived from it. The star is where a group is joined. Palmitoyl = CCCCCCCCCCCCCCCC(=O)*

Data set [1] is described as follows: Tissue distribution (biodistribution) in rats. The format is in vivo. The settings on record: FIG. 5C after intravenous injection. An excerpt:
FIG. 5C-tissue distribution after intravenous injection in rats, measured by ratio concentration tissue over plasma.
Following administration, molecules reach the systemic circulation via either the blood capillaries or the lymphatic system.

The target of a further data set is human Thrombin (Homo sapiens, UniProt P00734). As to the kind of experiment: Selectivity screening, human serine protease thrombin. The format is biochemical. Conditions: at 5 μM; read-out: inhibition of human Thrombin.

For `CCCCCCCCCCCCCCCC(=O)N[C@@H](CCCCN)CC(=O)N[C@@H](C)C(=O)N[C@@H](C)CC(=O)N[C@H](CCCCN)C(N)=O` (stereo in doubt) [compound 113], the “tissue distribution, concentration in tissue (liver and spleen) versus plasma” value in data set [1] is on record as “could reach the main target sites of dengue”. The term inhibition denotes the share of the control response that was lost under treatment. Take `CCCCCCCCCCCCCCCC(=O)N[C@@H](CCCNC(=N)N)C(=O)N[C@@H](CCC(N)=O)C(=O)N[C@@H](Cc1ccccc1)C(N)=O` [compound 43] (Palmitoyl-Arg-Gln-Phe-NH2): the inhibition at 5 µM on human Thrombin was less than 5%.
